Legend:
[1] = test system: dsOligo 1 (CGCGAATTCGCG) (DNA, duplex) CGCGAATTCGCG; assay: X-ray crystallography (2.2 Å); conditions: minor groove at AATT; mixed 1:1, 4% DMSO; crystals at 14 °C
[2] = test system: (poly[dG-dC])2 (DNA, polymer) GC; assay: intrinsic fluorescence titration; conditions: 100 mM NaCl; 50 mM Tris-HCl, 0.1 mM EDTA, pH 7.4; 2 μM ridinilazole, polymer titrated
[3] = test system: poly(dA)·poly(dT) (DNA, polymer) A/T; assay: intrinsic fluorescence titration; conditions: 100 mM NaCl; 50 mM Tris-HCl, 0.1 mM EDTA, pH 7.4; 2 μM ridinilazole, polymer titrated
[4] = test system: (poly[dA-dT])2 (DNA, polymer) AT; assay: intrinsic fluorescence titration; conditions: 100 mM NaCl; 50 mM Tris-HCl, 0.1 mM EDTA, pH 7.4; 2 μM ridinilazole, polymer titrated
[5] = test system: dsOligo 1 (CGCGAATTCGCG) (DNA, duplex) CGCGAATTCGCG; assay: intrinsic fluorescence titration, tight-binding linear fit; conditions: 100 mM NaCl; 50 mM Tris-HCl, 0.1 mM EDTA, pH 7.4; oligo titrated into fixed ridinilazole
[6] = test system: dsOligo 2 (CGCAAATTTGCG) (DNA, duplex) CGCAAATTTGCG; assay: as above; conditions: 100 mM NaCl; 50 mM Tris-HCl, 0.1 mM EDTA, pH 7.4; oligo titrated into fixed ridinilazole

SMILES: c1cc(-c2nc3cc(-c4ccc5nc(-c6ccncc6)[nH]c5c4)ccc3[nH]2)ccn1
- binding [1]: yes
- binding [2]: no
- binding [3]: yes
- binding [4]: yes
- Kd [5]: 21.6 nM
- Kd [6]: 21.3 nM
